# pIC50: −log10 of the molar value.
# Molecular target: MAPK14 (human) (UniProt Q16539)
# Assay: Inhibition of MAPK14 Kinase Activity
# Sequence of MAPK14 (human) (Q16539 whole entry, looked up): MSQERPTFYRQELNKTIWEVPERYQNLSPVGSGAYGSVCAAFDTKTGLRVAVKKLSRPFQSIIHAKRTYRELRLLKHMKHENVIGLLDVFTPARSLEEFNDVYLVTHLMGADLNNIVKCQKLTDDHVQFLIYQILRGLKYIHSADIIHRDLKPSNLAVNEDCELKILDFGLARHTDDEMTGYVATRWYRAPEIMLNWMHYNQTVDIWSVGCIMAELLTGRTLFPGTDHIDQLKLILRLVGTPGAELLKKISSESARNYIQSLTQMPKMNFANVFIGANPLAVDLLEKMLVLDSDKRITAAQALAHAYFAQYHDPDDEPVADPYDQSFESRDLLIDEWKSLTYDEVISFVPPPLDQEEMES
row,Structure (SMILES),pIC50
1,O=C1CCC(Oc2ccc(Cl)cc2Cl)CN1c1c(Cl)ccnc1Cl (configuration not stated),≥ 5.00
2,O=C(Cc1ccccc1)Nc1cc(Cl)c(N2CC(Oc3ccc(F)cc3F)CCC2=O)c(Cl)n1 (configuration not stated),≥ 5.00
3,Nc1cc(Cl)c(N2CC(Cc3ccc(F)cc3F)CNC2=O)c(Cl)c1 (configuration not stated),≥ 5.00
4,O=C1NCC(Cc2ccccc2Cl)CN1c1c(Cl)cccc1Cl (configuration not stated),≥ 5.00
5,Nc1cc(Cl)c(N2CC(Cc3ccc(F)cc3F)CSC2=O)c(Cl)c1 (configuration not stated),≥ 5.00
6,O=C1OCC(Cc2cccc3ccccc23)CN1c1c(Cl)cccc1Cl (configuration not stated),≥ 5.00
7,O=C1CCC(Oc2ccccc2)CN1C1C(Cl)CCCC1Cl (configuration not stated),≥ 5.00
8,O=C1CCC(Oc2cc(Cl)cc(Cl)c2)CN1c1c(Cl)ccnc1Cl (configuration not stated),≥ 5.00
9,Cc1ccc(SC2CCC(=O)N(c3c(Cl)cccc3Cl)C2)c(C)c1 (configuration not stated),≥ 5.00
10,NCc1ccccc1CC1CCC(=O)N(c2c(Cl)cccc2Cl)C1 (configuration not stated),≥ 5.00
11,O=C1CCC(Cc2ccc(F)cc2)CN1c1c(Cl)csc1Cl (configuration not stated),≥ 5.00
12,CC(=O)NC1CCC(Cl)C(N2CC(Sc3ccc(F)cc3F)CCC2=O)C1Cl (configuration not stated),≥ 5.00
13,CNC1CC(Cl)C(N2CC(Sc3ccc(F)cc3F)CCC2=O)C(Cl)C1 (configuration not stated),≥ 5.00
14,O=C1CSC(Cc2ccccc2Cl)CN1c1c(Cl)cccc1Cl (configuration not stated),≥ 5.00
15,Cc1cc(C#CCCOC2CCCCO2)cc(C)c1N1CC(Cc2ccc(F)cc2F)CCC1=O (configuration not stated),≥ 5.00
16,CCOC(=O)CNc1ccc(Cl)c(N2CC(Cc3ccc(F)cc3F)CCC2=O)c1 (configuration not stated),≥ 5.00
17,CS(=O)(=O)N1CCC(Nc2cc(Cl)c(N3CC(Cc4ccc(F)cc4F)CCC3=O)c(Cl)c2)CC1 (configuration not stated),≥ 5.00
18,Cc1cc(CCCN(C)C)cc(C)c1N1C[C@@H](Cc2ccc(F)cc2F)C[C@@H](C)C1=O,≥ 5.00
19,O=C1CCC(Sc2ccc(F)cc2F)CN1c1c(Cl)cc(O)nc1Cl (configuration not stated),≥ 5.00
20,O=C1CCC(Oc2cccc3ccccc23)CN1c1c(Cl)csc1Cl (configuration not stated),≥ 5.00
21,O=C1CCC(Sc2ccc(F)cc2)CN1c1c(Cl)csc1Cl (configuration not stated),≥ 5.00
22,CN(C)NC(=O)CNc1cc(Cl)c(N2CC(Cc3ccc(F)cc3F)CCC2=O)c(Cl)c1 (configuration not stated),≥ 5.00
23,Cc1cc(C)cc(CC2CCC(=O)N(c3c(Cl)csc3Cl)C2)c1 (configuration not stated),≥ 5.00

row,Structure (SMILES),pIC50
1,O=C1CCC(Cc2ccccc2F)CN1c1c(Cl)ccnc1Cl (configuration not stated),≥ 5.00
2,CC(=O)Nc1ncc(Cl)c(N2CC(Cc3ccc(F)cc3F)CCC2=O)c1Cl (configuration not stated),≥ 5.00
3,O=C1CCC(C(O)c2ccc(F)cc2F)CN1c1c(Cl)cccc1Cl (configuration not stated),≥ 5.00
4,Cc1cc(CCCCC=O)cc(C)c1N1CC(Cc2ccc(F)cc2F)CCC1=O (configuration not stated),≥ 5.00
5,CNc1cc(Cl)c(N2CC(Sc3ccc(F)cc3F)CCC2=O)c(Cl)n1 (configuration not stated),≥ 5.00
6,O=C1CCC(Sc2ccccc2Cl)CN1c1c(Cl)cncc1Cl (configuration not stated),≥ 5.00
7,CC(C)(C)C(=O)Nc1cc(Cl)c(N2CC(Cc3ccc(F)cc3F)CCC2=O)c(Cl)c1 (configuration not stated),≥ 5.00
8,O=C(NCc1ccccc1)NCc1ccccc1CC1CCC(=O)N(c2c(Cl)cccc2Cl)C1 (configuration not stated),≥ 5.00
9,CCNC(=O)Nc1cc(Cl)c(N2CC(Cc3ccc(F)cc3F)CCC2=O)c(Cl)c1 (configuration not stated),≥ 5.00
10,COc1ccccc1SC1CCC(=O)N(C2C(Cl)CCCC2Cl)C1 (configuration not stated),≥ 5.00
11,O=C1SCC(Cc2ccc(F)cc2F)CN1c1c(Cl)ccc(CO)c1Cl (configuration not stated),≥ 5.00
12,Cc1ccccc1OC1CCC(=O)N(c2c(Cl)csc2Cl)C1 (configuration not stated),≥ 5.00
13,Cc1cccc(C)c1N1C[C@@H](N(C)S(=O)(=O)c2ccc(F)cc2F)CCC1=O,≥ 5.00
14,O=C1CCC(Sc2cc(F)cc(F)c2)CN1C1C(Cl)CCCC1Cl (configuration not stated),≥ 5.00
15,Cc1ccc(SC2CCC(=O)N(c3c(Cl)cccc3Cl)C2)cc1 (configuration not stated),≥ 5.00
16,Cc1cc(C(=O)O)cc(C)c1N1C[C@@H](Cc2ccc(F)cc2F)C[C@@H](C)C1=O,≥ 5.00
17,Cc1ccc(OC2CCC(=O)N(C3C(Cl)CCCC3Cl)C2)cc1 (configuration not stated),≥ 5.00
18,Cc1nc(CNc2cc(Cl)c(N3CC(Cc4ccc(F)cc4F)CCC3=O)c(Cl)c2)c[nH]1 (configuration not stated),≥ 5.00
19,O=C1OCC(Cc2ccc(F)cc2F)CN1c1c(Cl)cc(O)cc1Cl (configuration not stated),≥ 5.00
20,O=C1CCC(Sc2ccc(F)cc2F)CN1c1c(Cl)ccnc1Cl (configuration not stated),≥ 5.00
21,O=C1CCC(Cc2ccc(F)cc2F)CN1c1c(Cl)cc(NC2CCNCC2)cc1Cl (configuration not stated),≥ 5.00
22,O=C1CCC(C(Cl)c2ccc(F)cc2F)CN1c1c(Cl)cccc1Cl (configuration not stated),≥ 5.00
23,CNc1ccc(Cl)c(N2CC(Cc3ccc(F)cc3F)SCC2=O)c1Cl (configuration not stated),≥ 5.00

row,Structure (SMILES),pIC50
1,O=C1COC(Cc2ccc(F)cc2F)CN1c1c(Cl)ccc(CO)c1Cl (configuration not stated),≥ 5.00
2,O=C1SCC(Cc2ccc(F)cc2F)CN1c1c(Cl)cccc1Cl (configuration not stated),≥ 5.00
3,Cc1cc(C)cc(OC2CCC(=O)N(c3c(Cl)ccnc3Cl)C2)c1 (configuration not stated),≥ 5.00
4,O=C1COC(Cc2ccc(F)cc2F)CN1c1c(Cl)cc(O)cc1Cl (configuration not stated),≥ 5.00
5,O=C1CCC(Cc2ccc(F)cc2F)CN1c1c(Cl)cc(N2C(=O)CCC2=O)cc1Cl (configuration not stated),≥ 5.00
6,CNc1sc(Cl)c(N2CC(Oc3ccc(F)cc3F)CCC2=O)c1Cl (configuration not stated),≥ 5.00
7,O=C1CCC(Sc2ccccc2F)CN1C1C(Cl)CCCC1Cl (configuration not stated),≥ 5.00
8,CN1CCN(CCNc2cc(Cl)c(N3CC(Cc4ccc(F)cc4F)CCC3=O)c(Cl)c2)CC1 (configuration not stated),≥ 5.00
9,Cc1cccc(C)c1N1CC(Cc2ccccc2Br)CCC1=O (configuration not stated),≥ 5.00
10,CN(C)Cc1cc(Cl)c(N2CC(Cc3ccc(F)cc3F)CCC2=O)c(Cl)c1 (configuration not stated),≥ 5.00
11,NC1CCC(Cl)C(N2CC(Oc3ccc(F)cc3F)CCC2=O)C1Cl (configuration not stated),≥ 5.00
12,O=C1CCC(Oc2ccc(F)cc2F)CN1c1c(Cl)ncc(CO)c1Cl (configuration not stated),≥ 5.00
13,COc1ccc(OC2CCC(=O)N(C3C(Cl)CCCC3Cl)C2)cc1 (configuration not stated),≥ 5.00
14,O=C1CCC(Sc2ccc3ccccc3c2)CN1c1c(Cl)ccnc1Cl (configuration not stated),≥ 5.00
15,Nc1cc(Cl)c(N2CC(Cc3ccccc3)CCC2=O)c(Cl)c1 (configuration not stated),≥ 5.00
16,CC(=O)Nc1cc(Cl)c(N2CC(Cc3ccc(F)cc3F)CCC2=O)c(Cl)n1 (configuration not stated),≥ 5.00
17,Cc1ccc(CC2CCC(=O)N(c3c(Cl)ccnc3Cl)C2)cc1 (configuration not stated),≥ 5.00
18,O=C1COC(Cc2ccc(F)cc2F)CN1c1c(Cl)ccc(O)c1Cl (configuration not stated),≥ 5.00
19,Cc1cc(CCCCC(=O)O)cc(C)c1N1CC(Cc2ccc(F)cc2F)CCC1=O (configuration not stated),≥ 5.00
20,O=C1CCC(Sc2cc(F)cc(F)c2)CN1c1c(Cl)cncc1Cl (configuration not stated),≥ 5.00
21,COc1ccccc1CC1CCC(=O)N(c2c(Cl)cncc2Cl)C1 (configuration not stated),≥ 5.00
22,CC[C@H]1C[C@@H](Cc2ccc(F)cc2F)CN(c2c(Cl)cccc2Cl)C1=O,≥ 5.00
23,Cc1ccc(CC2CCC(=O)N(c3c(Cl)cccc3Cl)C2)c(C)c1 (configuration not stated),≥ 5.00

row,Structure (SMILES),pIC50
1,O=C1CCC(Cc2ccccc2F)CN1C1C(Cl)CCCC1Cl (configuration not stated),≥ 5.00
2,CNC(=O)c1cc(C)c(N2CC(Cc3ccc(F)cc3F)CCC2=O)c(C)c1 (configuration not stated),≥ 5.00
3,C[C@@H]1C[C@H](Cc2ccc(F)cc2F)CN(c2c(Cl)cc(N)cc2Cl)C1=O,≥ 5.00
4,CN(C)CCCc1cc(Cl)c(N2CC(Cc3ccc(F)cc3F)CCC2=O)c(Cl)c1 (configuration not stated),≥ 5.00
5,O=C1CCC(Cc2ccc(F)cc2F)CN1c1c(Cl)cc(COC(c2ccccc2)(c2ccccc2)c2ccccc2)cc1Cl (configuration not stated),≥ 5.00
6,O=C1CCC(Cc2ccc(F)cc2F)CN1c1c(Cl)ccc(O)c1Cl (configuration not stated),≥ 5.00
7,Cc1cc(Br)cc(C)c1N1CC(Cc2ccc(F)cc2F)CCC1=O (configuration not stated),≥ 5.00
8,Cc1cc(C)cc(CC2CN(c3c(Cl)cccc3Cl)C(=O)CS2)c1 (configuration not stated),≥ 5.00
9,O=C1CSC(Cc2ccc(F)cc2F)CN1c1c(Cl)cccc1Cl (configuration not stated),≥ 5.00
10,O=C1CCC(Cc2ccc(F)cc2F)CN1c1c(Cl)cc(NCCN2CCOCC2)cc1Cl (configuration not stated),≥ 5.00
11,Nc1ccc(CC2CCC(=O)N(c3c(Cl)cccc3Cl)C2)cc1 (configuration not stated),≥ 5.00
12,O=C1CCC(Cc2ccc(Cl)cc2Cl)CN1c1c(Cl)csc1Cl (configuration not stated),≥ 5.00
13,O=C1CSC(Cc2ccc(Cl)cc2Cl)CN1c1c(Cl)cccc1Cl (configuration not stated),≥ 5.00
14,Cc1ccc(CC2CCC(=O)N(c3c(Cl)csc3Cl)C2)c(C)c1 (configuration not stated),≥ 5.00
15,CNc1cc(Cl)c(N2CC(Cc3ccc(F)cc3F)SCC2=O)c(Cl)c1 (configuration not stated),≥ 5.00
16,C[C@@H]1C[C@H](Cc2ccc(F)cc2F)CN(c2c(Cl)cc(NC(=O)OC(C)(C)C)cc2Cl)C1=O,≥ 5.00
17,CNc1cc(Cl)c(N2CC(Cc3ccc(F)cc3F)OCC2=O)c(Cl)c1 (configuration not stated),≥ 5.00
18,Cc1ccc(OC2CCC(=O)N(c3c(Cl)cccc3Cl)C2)c(C)c1 (configuration not stated),≥ 5.00
19,CNc1ccc(Cl)c(N2CC(Cc3ccc(F)cc3F)CN(C)C2=O)c1Cl (configuration not stated),≥ 5.00
20,O=C1CCC(Sc2ccc(F)cc2F)CN1c1c(Cl)cccc1Cl (configuration not stated),≥ 5.00
21,CC(=O)NCCN(C(=O)OC(C)(C)C)c1cc(Cl)c(N2CC(Cc3ccc(F)cc3F)CCC2=O)c(Cl)c1 (configuration not stated),≥ 5.00
22,O=C1CCC(Cc2ccccc2)CN1c1c(Cl)cccc1Cl (configuration not stated),≥ 5.00
23,Cc1ccccc1CC1CCC(=O)N(c2c(Cl)csc2Cl)C1 (configuration not stated),≥ 5.00

row,Structure (SMILES),pIC50
1,O=C1CCC(Sc2ccccc2F)CN1c1c(Cl)csc1Cl (configuration not stated),≥ 5.00
2,O=C1CCC(Cc2cccc3ccccc23)CN1C1C(Cl)CCCC1Cl (configuration not stated),≥ 5.00
3,Cc1cccc(C)c1N1C[C@H](Cc2ccc(F)cc2F)C[C@@H](C)C1=O,≥ 5.00
4,Nc1cc(Cl)c(N2CC(Oc3ccc(F)cc3F)CCC2=O)c(Cl)c1 (configuration not stated),≥ 5.00
5,Cc1cc(C)cc(OC2CCC(=O)N(c3c(Cl)cccc3Cl)C2)c1 (configuration not stated),≥ 5.00
6,COc1ccc(CC2CCC(=O)N(c3c(Cl)ccnc3Cl)C2)cc1 (configuration not stated),≥ 5.00
7,CN1CC(Cc2ccc(Cl)cc2)CN(c2c(Cl)cccc2Cl)C1=O (configuration not stated),≥ 5.00
8,O=C1NCC(Cc2ccc(F)cc2F)CN1c1c(Cl)cc(O)cc1Cl (configuration not stated),≥ 5.00
9,COc1ccccc1OC1CCC(=O)N(c2c(Cl)cncc2Cl)C1 (configuration not stated),≥ 5.00
10,CC(=O)Nc1cc(Cl)c(N2CC(Oc3ccc(F)cc3F)CCC2=O)c(Cl)c1 (configuration not stated),≥ 5.00
11,CC(=O)Nc1ccc(Cl)c(N2CC(Cc3ccc(F)cc3F)CN(C)C2=O)c1Cl (configuration not stated),≥ 5.00
12,NC(=O)CNc1cc(Cl)c(N2CC(Cc3ccc(F)cc3F)CCC2=O)c(Cl)c1 (configuration not stated),≥ 5.00
13,Cc1cc(C#CCCCO)cc(C)c1N1CC(Cc2ccc(F)cc2F)CCC1=O (configuration not stated),≥ 5.00
14,CCN(CC)CC(=O)Nc1cc(Cl)c(N2CC(Cc3ccc(F)cc3F)CCC2=O)c(Cl)c1 (configuration not stated),≥ 5.00
15,O=C1CCC(Oc2ccc(Cl)cc2Cl)CN1C1C(Cl)CCCC1Cl (configuration not stated),≥ 5.00
16,Cc1cc(CN)cc(C)c1N1CC(Cc2ccc(F)cc2F)CCC1=O (configuration not stated),≥ 5.00
17,COc1ccccc1OC1CCC(=O)N(C2C(Cl)CCCC2Cl)C1 (configuration not stated),≥ 5.00
18,CC(=O)NCc1ccccc1CC1CCC(=O)N(c2c(Cl)cccc2Cl)C1 (configuration not stated),≥ 5.00
19,O=C1CCC(Cc2cc(Cl)cc(Cl)c2)CN1c1c(Cl)cncc1Cl (configuration not stated),≥ 5.00
20,O=C1CCC(CO)(Cc2ccc(F)cc2F)CN1c1c(Cl)cccc1Cl (configuration not stated),≥ 5.00
